Patent publication US20260083851A1 (AVILAR THERAPEUTICS, INC., priority 2022, published 2026)
Read-outs that look alike come from different tables or passages of the source.

Experiments:
[1] = test system: HepG2 cells; experiment: Cellular uptake assay (high-content imaging); assay type: cell-based, human; conditions: 100 nM AF488-labeled antibody, 6 hours at 37° C.
Text: The cellular uptake assay is designed to measure compound-mediated cellular uptake of fluorescently labeled antibody following ternary complex formation with the ASGPR receptor and endocytosis of the entire complex into cells. The optimal concentration of compound will result in the maximum number of cells with intracellular antibody and is represented as the peak ratio of antibody-positive cells over the total number of cells. As with the ternary complex formation assay, too much or too little compound will result in suboptimal complex formation and fewer cells will have measurable intracellular fluorescence.
Human IgG (Sigma-Aldrich, 14506) was covalently labeled with Alexa Fluor 488 using the Alexa Fluor™ 488 Protein Labeling Kit (Thermo Fisher, A10235) following the manufacturer's instructions. HepG2 cells were plated in DMEM supplemented with 10% FBS at 5,000 cells per well in a 96-well microtiter plate and incubated for approximately 18 hours at 37° C./5% CO2. For studies using human IgG, 100 nM AF488-labeled human IgG antibodies and serial dilutions of IgG-based degrader (0.1% DMSO final concentration) were added to the cells and the mixture was incubated at 37° C. for 6 hours. For studies using DNP, 100 nM AF488-labeled DNP antibodies and serial dilutions of DNP-based degrader (0.1% DMSO final concentration) were added to the cells and the mixture was incubated at 37° C. for 6 hours. HepG2 cells were fixed in 100% methanol at −20° C. for 20 min, washed 3× with PBS, then stained with DAPI (Thermo, Cat #H3570). HepG2 cells were imaged for DAPI and Alexa Fluor 488 using the Operetta CLS, high-content analysis system (PerkinElmer). Data is presented as the ratio of the number of cells positive for hIgG or DNP (AF-488 fluorescence) over the total cell number (measured by DAPI).

[2] = target: IgG; experiment: IgG SPR binding; conditions: Table 3, read-out: IgG SPR Binding KD
[3] = target: T1, ASGPR receptor on HepG2 cells (ternary complex with AF488-labeled antibody) (Homo sapiens, UniProt P07306); experiment: Ternary complex formation assay (flow cytometry, cell-associated AF488 fluorescence); assay type: cell-based; conditions: 100 nM AF488-labeled antibody, 1 hour at 4° C.
T1 construct: host or cells: HepG2
T1 sequence (P07306 1-291): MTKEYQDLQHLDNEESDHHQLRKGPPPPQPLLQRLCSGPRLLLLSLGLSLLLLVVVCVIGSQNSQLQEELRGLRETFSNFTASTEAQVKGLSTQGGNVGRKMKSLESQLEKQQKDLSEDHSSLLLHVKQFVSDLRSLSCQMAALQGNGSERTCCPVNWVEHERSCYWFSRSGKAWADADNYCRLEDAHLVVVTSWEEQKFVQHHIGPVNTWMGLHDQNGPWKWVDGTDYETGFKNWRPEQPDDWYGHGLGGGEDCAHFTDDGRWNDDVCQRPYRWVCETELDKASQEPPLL
T1 sequence (P07307 1-311 partner): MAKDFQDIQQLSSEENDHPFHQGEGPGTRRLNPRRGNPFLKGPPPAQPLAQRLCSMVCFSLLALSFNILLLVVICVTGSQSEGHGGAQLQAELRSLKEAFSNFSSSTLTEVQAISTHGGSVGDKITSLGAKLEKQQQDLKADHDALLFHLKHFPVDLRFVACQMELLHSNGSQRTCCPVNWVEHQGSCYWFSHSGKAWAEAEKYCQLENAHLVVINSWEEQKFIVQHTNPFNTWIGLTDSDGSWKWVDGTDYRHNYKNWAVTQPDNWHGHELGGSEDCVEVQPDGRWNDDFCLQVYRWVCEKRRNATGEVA

[4] = target: T2, ASGPR (Homo sapiens, UniProt P07306); experiment: ASGPR SPR binding
T2 construct: biotin (biotinylated)
T2 sequence (P07306 1-291): T1 sequence (P07306 1-291)

[5] = Homo sapiens, Table 3, class symbols, read-out: Uptake Assay (EC50)
[6] = Table 3, class symbols, read-out: Ternary Complex EC50
[7] = Table 3, read-out: ASGPR SPR Binding KD

Structure (SMILES) | EC50 [1, 5] | Kd [2] | EC50 [3, 6] | Kd [4, 7] | EC50 ([1]; Homo sapiens, Table 3, numeric bounds, read-out: Uptake Assay (EC50)) | EC50 ([3]; Table 3, numeric bounds, read-out: Ternary Complex EC50) | EC50 ([1]; the 25th table, class symbols, read-out: Uptake EC50) | EC50 ([3]; the 25th table, class symbols, read-out: TCF EC50) | Kd ([4]; second table, read-out: ASGPR KD)
CC(C)C[C@@H]1NC(=O)[C@H](Cc2cnc[nH]2)NC(=O)[C@H](Cc2c[nH]c3ccccc23)NC(=O)[C@H](C)NC(=O)[C@@H]2CSSC[C@H](NC(=O)[C@H](Cc3c[nH]c4ccccc34)NC(=O)[C@H](C(C)C)NC(=O)[C@H](CC(C)C)NC(=O)[C@H](CCC(=O)O)NC(=O)CNC1=O)C(=O)N[C@@H]([C@@H](C)O)C(=O)N1CCC[C@@H]1C(=O)N1C[C@@H](NC(=O)c3ccc(N4CCC(CN5CCN(C[C@H]6OC[C@H](Nc7cccc(C(F)(F)F)n7)[C@@H](O)[C@H]6O)CC5)CC4)cc3)C[C@H]1C(=O)N[C@@H](CC(=O)O)C(=O)N2 [compound 26] | < 100 nM | < 100 nM | < 100 nM | < 100 nM |  |  |  |  | 
CC(C)C[C@@H]1NC(=O)[C@H](Cc2cnc[nH]2)NC(=O)[C@H](Cc2c[nH]c3ccccc23)NC(=O)[C@H](C)NC(=O)[C@@H](NC(=O)[C@H](CC(=O)O)NC(=O)CCOCCCCOCCCCOCCCCOCCNC(=O)CCCc2cn(CCCCCC(=O)NC(COCCC(=O)NCCOCCOCCOCCOC[C@H]3OC[C@H](Nc4nccc(C(F)(F)F)n4)C[C@H]3O)COCCC(=O)NCCOCCOCCOCCOC[C@H]3OC[C@H](Nc4nccc(C(F)(F)F)n4)C[C@H]3O)nn2)CSSC[C@@H](C(=O)N[C@H](C(N)=O)[C@@H](C)O)NC(=O)[C@H](Cc2c[nH]c3ccccc23)NC(=O)[C@H](C(C)C)NC(=O)[C@H](CC(C)C)NC(=O)[C@H](CCC(=O)O)NC(=O)CNC1=O [compound 92] |  |  |  |  |  |  | > 1000 nM | > 1000 nM | > 1000 nM
CC(C)C[C@@H]1NC(=O)[C@H](Cc2cnc[nH]2)NC(=O)[C@H](Cc2c[nH]c3ccccc23)NC(=O)[C@H](C)NC(=O)[C@@H]2CSSC[C@H](NC(=O)[C@H](Cc3c[nH]c4ccccc34)NC(=O)[C@H](C(C)C)NC(=O)[C@H](CC(C)C)NC(=O)[C@H](CCC(=O)O)NC(=O)CNC1=O)C(=O)N[C@@H]([C@@H](C)O)C(=O)N1CCC[C@@H]1C(=O)N1C[C@@H](NC(=O)COCCOCC(=O)NC[C@H]3OC[C@H](Nc4cccc(C(F)(F)F)n4)[C@@H](O)[C@H]3O)C[C@H]1C(=O)N[C@@H](CC(=O)O)C(=O)N2 [compound 25] | < 100 nM |  | < 100 nM | 500 to 1000 nM |  |  |  |  | 

Further lines, with some results ahead:

EC50 [1, 5] | Kd [2] | EC50 [3, 6] | Kd [4, 7] | EC50 ([1]; Homo sapiens, Table 3, numeric bounds, read-out: Uptake Assay (EC50)) | EC50 ([3]; Table 3, numeric bounds, read-out: Ternary Complex EC50) | Structure (SMILES) | EC50 ([1]; the 25th table, class symbols, read-out: Uptake EC50) | EC50 ([3]; the 25th table, class symbols, read-out: TCF EC50) | Kd ([4]; second table, read-out: ASGPR KD)
 | < 100 nM |  | > 1000 nM | > 10000 nM | > 10000 nM | CC(C)C[C@@H]1NC(=O)[C@H](Cc2cnc[nH]2)NC(=O)[C@H](Cc2c[nH]c3ccccc23)NC(=O)[C@H](C)NC(=O)[C@@H]2CSSC[C@H](NC(=O)[C@H](Cc3c[nH]c4ccccc34)NC(=O)[C@H](C(C)C)NC(=O)[C@H](CC(C)C)NC(=O)[C@H](CCC(=O)O)NC(=O)CNC1=O)C(=O)N[C@@H]([C@@H](C)O)C(=O)N1CCC[C@@H]1C(=O)N1C[C@H](NC(=O)COCCOCC(=O)NC[C@H]3OC[C@H](Nc4nccc(C(F)(F)F)n4)[C@@H](O)[C@H]3O)C[C@H]1C(=O)N[C@@H](CC(=O)O)C(=O)N2 [compound 35] |  |  | 
100 to 500 nM | < 100 nM | 100 to 500 nM | < 100 nM |  |  | CC(C)C[C@@H]1NC(=O)[C@H](Cc2cnc[nH]2)NC(=O)[C@H](Cc2c[nH]c3ccccc23)NC(=O)[C@H](C)NC(=O)[C@@H]2CSSC[C@H](NC(=O)[C@H](Cc3c[nH]c4ccccc34)NC(=O)[C@H](C(C)C)NC(=O)[C@H](CC(C)C)NC(=O)[C@H](CCC(=O)O)NC(=O)CNC1=O)C(=O)N[C@@H]([C@@H](C)O)C(=O)N1CCC[C@@H]1C(=O)N1C[C@H](NC(=O)c3ccc(N4CCC(CN5CCN(C[C@H]6OC[C@H](Nc7nc(C(F)(F)F)ccc7F)[C@@H](O)[C@H]6O)CC5)CC4)cc3)C[C@H]1C(=O)N[C@@H](CC(=O)O)C(=O)N2 [compound 30] |  |  | 
